According to EP3964211A1, “A COMPOSITION COMPRISING AN ASCORBYL PHOSPHATE, NIACINAMIDE AND ALLANTOIN FOR TREATING ACNE” (DSM IP Assets B.V., priority 2020, dated 2022):
Like-named read-outs stand apart in the source and are kept apart here.

Test system: C. acnes (ATCC reference 11827)
Experiment: Cutibacterium acnes Time-Kill assay
Type: cell-based
Procedure: Sodium ascorbyl phosphate, niacinamide, allantoin as well as a combination thereof were screened for their potential anti-microbial activities against C. acnes (ATCC reference 11827). The action of ingredients and combinations thereof is assessed through a miniaturized method performed in liquid media in 96 deepwell plates format. The inhibition of the growth of C. acnes is compared to the same strain growth in corresponding optimal media.
The different ingredients are mixed in growth medium (final volume 2mL) in deepwell plates (n=3). Analysis controls are prepared and used identically to samples : • A growth control of Cutibacterium acnes in the corresponding culture medium; • A growth control of Cutibacterium acnes with ethanol at 2,5 % (v/v) directly in the culture medium; • A growth control of microorganisms with olive oil at 5 % (v/v) directly in the culture medium; • A control consisting of Salicylic acid at 0.5% directly in the culture medium Then, samples are contaminated with C. acnes, inoculum at final concentration of 3,7 x10^5 cfu/mL, […]
To perform the counting, aliquots of the contaminated samples are serially diluted (decimal dilutions) in culture medium in 96-well plates with triphenyltetrazolium and incubated at 37°C ± 2,5°C during 48 h. After 48 h at the optimal growing conditions, the last dilution showing a pink color (triphenyltetrazolium) or turbidity indicates the contamination rate and allow the determination of the corresponding microbial population.

[1] = 2 h, read-out: Log-step reduction (2h)

NC(=O)c1cccnc1 [Niacinamide, pyridine-3-carboxamide]
log reduction at 3 % [1]: 0.7

NC(=O)NC1NC(=O)NC1=O (centres unmarked) [Allantoin, 2,5-dioxo-4-imidazolidinyl urea]
log reduction at 0.5 % (0.5 wt.-% in growth medium, 2h, compared to initial log/cfu of 5.6, n=3, read-out: Log-step reduction (2h)): 0.6

O=C1O[C@H]([C@@H](O)CO)C(O)=C1OP(=O)(O)O [Sodium ascorbyl phosphate, sodium ascorbyl phosphate]
log reduction at 3 % (3 wt.-% in growth medium, 2h, compared to initial log/cfu of 5.6, n=3, read-out: Log-step reduction (2h)): 1.7

O=C(O)c1ccccc1O [Salicylic acid, reference compound]
log reduction at 0.5 % [1]: 3 | log reduction at 0.5 % (2.5 h, read-out: log-step reduction of C. acnes): 3
